Drawing on patent US7932262B2 (Novartis AG, priority 2006, dated 2011), this text covers EC50 and IC50 for 31 compounds.

For one assay, the system named is PC-3 cells. The assay is described as follows: Cell Proliferation Assay (Cell Titer Glo), PC-3 cell line. The assay is classed as cell-based. The note with it: Homo sapiens, PC-3, Cell Proliferation Assay, PC3; read-out: CPEC50 PC3. A digest of the protocol:
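PC-3 cells, 1000 cells/well, left to adhere 3-5 h, then exposed for 3 days at 37° C to compounds as 1:3 serial dilutions from 500× DMSO stocks diluted in growth medium. Medium then replaced with fresh medium and viability read by Cell Titer Glo luminescence.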

Another assay has as its target T1, PDK1 kinase (Homo sapiens, UniProt O15530).
T1 sequence (O15530 1-556): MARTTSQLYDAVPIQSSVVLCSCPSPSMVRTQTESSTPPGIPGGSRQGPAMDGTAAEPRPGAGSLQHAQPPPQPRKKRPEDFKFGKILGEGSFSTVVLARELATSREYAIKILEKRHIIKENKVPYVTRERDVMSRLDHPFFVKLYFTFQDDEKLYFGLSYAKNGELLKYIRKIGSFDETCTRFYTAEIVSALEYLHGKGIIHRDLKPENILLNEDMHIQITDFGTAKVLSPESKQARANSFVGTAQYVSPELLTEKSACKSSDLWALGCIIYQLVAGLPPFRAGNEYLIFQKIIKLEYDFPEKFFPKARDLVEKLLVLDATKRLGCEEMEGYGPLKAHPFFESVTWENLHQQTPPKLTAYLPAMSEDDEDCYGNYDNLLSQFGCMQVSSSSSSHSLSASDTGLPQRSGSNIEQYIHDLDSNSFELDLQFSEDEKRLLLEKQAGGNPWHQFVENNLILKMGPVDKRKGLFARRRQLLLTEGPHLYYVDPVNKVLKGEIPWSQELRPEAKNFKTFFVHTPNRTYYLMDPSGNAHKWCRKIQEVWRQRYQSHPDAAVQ
Kind of assay: PDK1 Kinase Alpha Screen Assay. The format is biochemical. To be noted: PDK1 Kinase Alpha Screen Assay; read-out: PDK1 IC50. In short, it runs like this:
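Test compounds were incubated with PDK1 kinase, 10 uM ATP and 50 nM biotinylated peptide substrate for 3-18 hours at pH 7.5 with 2.5% DMSO. Peptide phosphorylation was then detected by AlphaScreen proximity luminescence using a phospho-(Ser/Thr) PKA substrate antibody.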

In the case of `CC(C)N1CCC(Oc2ccc3cnc(Nc4cccc(N5CCOCC5)c4)nc3c2)CC1` [Compound 580, 7-(1-isopropylpiperidin-4-yloxy)-N-(3-morpholinophenyl)quinazolin-2-amine], the EC50 with PC-3 cells was in the range of 5 to 10 µM. For the same compound, the IC50 on PDK1 kinase is 5 to 10 µM.

Consider `CN1CCN(c2cccc(Nc3ncc4ccc(OC5CCNCC5)cc4n3)c2)CC1` [Compound 581, N-(3-(4-methylpiperazin-1-yl)phenyl)-7-(piperidin-4-yloxy)quinazolin-2-amine], for which, in the assay with PC-3 cells, the EC50 is < 5 µM. In addition, the IC50 at PDK1 kinase is < 5 µM.

As for `CC(C)N1CCC(Oc2ccc3cnc(Nc4cccc(N5CCN(C)CC5)c4)nc3c2)CC1` [Compound 582, 7-(1-isopropylpiperidin-4-yloxy)-N-(3-(4-methylpiperazin-1-yl)phenyl)quinazolin-2-amine], the EC50 in the assay on PC-3 cells is 5 to 10 µM. Further, the concentration for half-maximal inhibition (IC50) on PDK1 kinase was < 5 µM.

As to `Cc1nc(Nc2ccc(S(N)(=O)=O)cc2)nc2cc(OCCC3CCNCC3)ccc12` [Compound 583], in the assay with PC-3 cells, the EC50 is 5 to 10 µM. Also, the IC50 on PDK1 kinase was 10 to 25 µM.

Turning to `c1ncc(-c2ccc(Nc3ncc4ccc(OC5CCNCC5)cc4n3)cc2)o1` [Compound 584, N-(4-(oxazol-5-yl)phenyl)-7-(piperidin-4-yloxy)qinazolin-2-amine], the EC50 with PC-3 cells is < 5 µM. For the same compound, the IC50 at PDK1 kinase was < 5 µM.

Turning to `O=C(c1ccc(Nc2ncc3ccc(OC4CCNCC4)cc3n2)cc1)N1CCOCC1` [Compound 585, morpholilno(4-(7-(piperidin-4-yloxy)quinazolin-2-ylamino)phenyl)methanone], the EC50 with PC-3 cells was < 5 µM. Further, the half-inhibitory concentration (IC50) at PDK1 kinase was < 5 µM.

Consider `NS(=O)(=O)c1ccc(Nc2ncc3c(-c4cn[nH]c4)ccc(OC4CCNCC4)c3n2)cc1` [Compound 586, 4-(8-(piperidin-4-yloxy)-5-(1H-pyrazol-4-yl)quinazolin-2-ylamino)benzensulfonamide], for which the EC50 in the assay with PC-3 cells fell in the range of 5 to 10 µM. For the same compound, the IC50 at PDK1 kinase was in the range of 5 to 10 µM.

As for `COc1cc(Nc2ncc3ccc(OC4CCNCC4)cc3n2)cc(C(F)(F)F)c1` [Compound 587, N-(3-methoxy-5-(trifluoromethyl)phenyl)-7-(piperidin-4-yloxy)quinazolin-2-amine], the EC50 in the assay on PC-3 cells was < 5 µM. Moreover, the IC50 at PDK1 kinase was < 5 µM.

For `NC(=O)c1cc(Nc2ncc3ccc(OC4CCNCC4)cc3n2)cc(C(F)(F)F)c1` [Compound 588, 3-(7-(piperidin-4-yloxy)quinazolin-2-ylamino)-5-(trifluoromethyl)benzamide], the EC50 in the assay with PC-3 cells is < 5 µM. The IC50 on PDK1 kinase was < 5 µM.

Take `Fc1ccc(Nc2ncc3ccc(OC4CCNCC4)cc3n2)cc1Br` [Compound 589, N-(3-bromo-4-fluorophenyl)-7-(piperidin-4-yloxy)quinazolin-2-amine]: the EC50 in the assay on PC-3 cells is < 5 µM. For the same compound, the IC50 at PDK1 kinase was < 5 µM.

On to `CC(C)NC(=O)c1ccc(Nc2ncc3ccc(OC4CCNCC4)cc3n2)cc1` [Compound 590, N-isopropyl-4-(7-(piperidin-4-yloxy)quinazolin-2-ylamino)benzamide], for which the EC50 with PC-3 cells is < 5 µM. At PDK1 kinase, the 50% inhibitory concentration (IC50) is < 5 µM.

As for `Fc1ccc(Nc2ncc3ccc(OC4CCNCC4)cc3n2)cc1-c1cnoc1` [Compound 592, N-(4-fluoro-3-(isoxazol-4-yl)phenyl)-7-(piperidin-4-yloxy)quinazolin-2-amine], the EC50 in the assay with PC-3 cells was 5 to 10 µM. Further, the half-maximal inhibitory concentration (IC50) on PDK1 kinase was < 5 µM.

For the compound `Fc1cc(Nc2ncc3ccc(OC4CCNCC4)cc3n2)ccc1N1CCOCC1` [Compound 593, N-(3-fluoro-4-morpholinophenyl)-7-(piperidin-4-yloxy)quinazolin-2-amine], the EC50 in the assay on PC-3 cells was < 5 µM. Also, the IC50 at PDK1 kinase is < 5 µM.

With `Clc1cc(Nc2ncc3ccc(OC4CCNCC4)cc3n2)ccc1N1CCOCC1` [Compound 594, N-(3-chloro-4-morpholinophenyl)-7-(piperidin-4-yloxy)quinazolin-2-amine], the EC50 in the assay with PC-3 cells is < 5 µM. The IC50 at PDK1 kinase was < 5 µM.

Regarding `O=C(c1ccc(Nc2ncc3c(Cl)ccc(OC4CCNCC4)c3n2)cc1)N1CCOCC1` [Compound 595, (4-(5-chloro-8-(piperidin-4-yloxy)quinazolin-2-ylamino)phenyl)(morpholino)methanone], the EC50 in the assay on PC-3 cells lay in the range of 5 to 10 µM. Besides, the IC50 at PDK1 kinase was < 5 µM.

On to `Fc1cc(Nc2ncc3ccc(OC4CCNCC4)cc3n2)ccc1Br` [Compound 596, N-(4-bromo-3-fluorophenyl)-7-(piperidin-4-yloxy)quinazolin-2-amine], for which, in the assay with PC-3 cells, the EC50 was < 5 µM. Also, the concentration for half-maximal inhibition (IC50) on PDK1 kinase was < 5 µM.

Take `Fc1cc(Nc2ncc3c(Cl)ccc(OC4CCNCC4)c3n2)ccc1N1CCOCC1` [Compound 597, 5-chloro-N-(3-fluoro-4-morpholinophenyl)-8-(piperidin-4-yloxy)quinazolin-2-amine]: the EC50 in the assay on PC-3 cells was in the range of 5 to 10 µM. The IC50 on PDK1 kinase was < 5 µM.

Regarding `Cn1cc(-c2ccc(Nc3ncc4ccc(OC5CCNCC5)cc4n3)cc2F)cn1` [Compound 598, N-(3-fluoro-4-(1-methyl-1H-pyrazol-4-yl)phenyl)-7-(piperidin-4-yloxy)quinazolin-2-amine], the EC50 with PC-3 cells lay within 5 to 10 µM. Also, at PDK1 kinase, the IC50 is < 5 µM.

As for `CC(C)NC(=O)c1ccc(Nc2ncc3c(Cl)ccc(OC4CCNCC4)c3n2)cc1` [Compound 599, 4-(5-chloro-8-(piperidin-4-yloxy)quinazolin-2-ylamino)-N-isopropylbenzamide], the EC50 in the assay with PC-3 cells is < 5 µM. Also, the IC50 at PDK1 kinase was < 5 µM.

`Fc1cccc(Nc2ncc3c(Cl)ccc(OC4CCNCC4)c3n2)c1` [Compound 600, 5-chloro-N-(3-fluorophenyl)-8-(piperidin-4-yloxy)quinazolin-2-amine]: in the assay with PC-3 cells, the EC50 was < 5 µM. For the same compound, the IC50 at PDK1 kinase is < 5 µM.

With `Clc1ccc(OC2CCNCC2)c2nc(Nc3cccc(N4CCOCC4)c3)ncc12` [Compound 601, 5-chloro-N-(3-morpholinophenyl)-8-(piperidin-4-yloxy)quinazolin-2-amine], the EC50 in the assay on PC-3 cells lay within 5 to 10 µM. The IC50 at PDK1 kinase is < 5 µM.

Regarding `Clc1cc(Nc2ncc3c(Cl)ccc(OC4CCNCC4)c3n2)ccc1N1CCOCC1` [Compound 602], the EC50 in the assay on PC-3 cells was < 5 µM. For the same compound, the half-maximal inhibitory concentration (IC50) on PDK1 kinase was < 5 µM.

`CC(C)NS(=O)(=O)c1ccc(Nc2ncc3c(Cl)ccc(OC4CCNCC4)c3n2)cc1` [Compound 603, 4-(5-chloro-8-(piperidin-4-yloxy)quinazolin-2-ylamino)-N-isopropylbenzenesulfonamide]: the EC50 in the assay with PC-3 cells is < 5 µM. For the same compound, at PDK1 kinase, the half-inhibitory concentration (IC50) is < 5 µM.

As for `O=C(NC1CC1)c1ccc(Nc2ncc3c(Cl)ccc(OC4CCNCC4)c3n2)cc1` [Compound 604, 4-(5-chloro-8-(piperidin-4-yloxy)quinazolin-2-ylamino)-N-cyclopropylbenzamide], in the assay with PC-3 cells, the EC50 is < 5 µM. The IC50 at PDK1 kinase was < 5 µM.

On to `Clc1ccc(OC2CCNCC2)c2nc(Nc3ccc(N4CCOCC4)cc3)ncc12` [Compound 605, 5-chloro-N-(4-morpholinophenyl)-8-(piperidin-4-yloxy)quinazolin-2-amine], for which the EC50 in the assay with PC-3 cells fell in the range of 5 to 10 µM. The IC50 at PDK1 kinase is < 5 µM.

For `O=S(=O)(c1ccc(Nc2ncc3c(Cl)ccc(OC4CCNCC4)c3n2)cc1)N1CCOCC1` [Compound 606, 5-chloro-N-(4-(morpholinosulfonyl)phenyl)-8-(piperidin-4-yloxy)quinazolin-2-amine], the EC50 in the assay on PC-3 cells is < 5 µM. For the same compound, the 50% inhibitory concentration (IC50) at PDK1 kinase was < 5 µM.

As for `CC(C)NS(=O)(=O)c1ccc(Nc2ncc3ccc(OC4CCNCC4)cc3n2)cc1` [Compound 607, N-isopropyl-4-(7-(piperidin-4-yloxy)quinazolin-2-ylamino)benzenesulfonamide], the EC50 in the assay on PC-3 cells was < 5 µM. Also, at PDK1 kinase, the concentration for half-maximal inhibition (IC50) is < 5 µM.

As for `O=C(c1ccc(Nc2ncc3c(Cl)ccc(OC4CNC4)c3n2)cc1)N1CCOCC1` [Compound 608, (4-(8-(azetidin-3-yloxy)-5-chloroquinazolin-2-ylamino)phenyl)(morpholino)methanone], the EC50 with PC-3 cells was in the range of 5 to 10 µM. Further, at PDK1 kinase, the IC50 was < 5 µM.

Take `Clc1ccc(OC2CNC2)c2nc(Nc3ccc(N4CCOCC4)cc3)ncc12` [Compound 609, 8-(azetidin-3-yloxy)-5-chloro-N-(4-morpholinophenyl)quinazolin-2-amine]: in the assay with PC-3 cells, the EC50 was 5 to 10 µM. Besides, on PDK1 kinase, the IC50 is < 5 µM.

As to `Fc1cc(Nc2ncc3c(Cl)ccc(OC4CNC4)c3n2)ccc1N1CCOCC1` [Compound 610, 8-(azetidin-3-yloxy)-5-chloro-N-(3-fluoro-4-morpholinophenyl)quinazolin-2-amine], the EC50 in the assay with PC-3 cells is 5 to 10 µM. Besides, on PDK1 kinase, the concentration for half-maximal inhibition (IC50) is < 5 µM.

For `Clc1cc(Nc2ncc3c(Cl)ccc(OC4CNC4)c3n2)ccc1N1CCOCC1` [Compound 611, 8-(azetidin-3-yloxy)-5-chloro-N-(3-chloro-4-morpholinophenyl)quinazolin-2-amine], in the assay with PC-3 cells, the EC50 is < 5 µM. The IC50 at PDK1 kinase was < 5 µM.
